A short description of the data set: Balance study: n-3 and n-6 PUFA balance (intake, excretion, accretion, metabolic consumption). The data set is classed as in vivo, rat. The settings on record: 24 h feces at 8 weeks postweaning, percentage of intake. The procedure:
All procedures were performed in accordance with the policies set out by the Canadian Council on Animal Care and were approved by the Animal Ethics Committee at the University of Toronto. Three Long Evans dams each with 18-day-old male Long Evans pups were ordered from Charles River Laboratories (St. Constant, QC, Canada). Pups were nonlittermates and each dam was housed with pups. Upon arrival, dams were allocated to one of the three diets (described below). When the pups were 21 days old, two pups from each dam were euthanized by high-energy head-focused microwave fixation (4.5 kW for 0.9 s). Brains were removed immediately and stored at -80°C until lipid analysis. Bodies were also stored at -80°C immediately after euthanization until analysis. The brains and bodies of these pups were used to determine the PUFA content of the rats at weaning (i.e., baseline PUFA content). […] For the balance study, the rats were weighed, food intake was determined, and uneaten food was replaced with fresh food on a weekly basis. Rats were euthanized by CO2 asphyxiation. Brains were removed and dissected sagittally. Carcasses and one half brain per rat were stored immediately at -80°C (to be later analyzed for lipid content). […] For the steady-state infusion study and the brain DHA uptake study, a jugular vein catheter was surgically implanted into the rats. […] Carcasses were thawed overnight in a refrigerator at 3°C, cut into pieces, and passed through a #12 hand grinder. After the whole body had passed through the grinder once, the homogenate was mixed together by hand and passed at least one more time through the grinder until the mixture was sufficiently homogeneous. Due to the small size of the pups all of the 21-day-old pup bodies were passed through the grinder together. […] New chloroform was added to the remaining aqueous phase, the mixture was once again centrifuged, and the chloroform layer was extracted and added to the previously extracted chloroform layer. […] One hemisphere was thawed briefly and dissected over ice to separate the brainstem, cerebellum, cortex, hippocampus, striatum, and the rest of the brain. […] The homogenizer was then washed with methanol, which was then transferred to the test tube containing the homogenized brain and KCl. […] The chloroform layer was extracted and new chloroform was added to the aqueous phase. […] At 8 weeks postweaning all the feces produced by a rat in 24 h were collected. […] Mean PUFA excretion (percentage of intake) was determined and applied to all animals to determine PUFA excretion. […] Nu-Check Prep, Elysian, MN) was added to the TLE. […] Samples were injected in […] mode. The injector and detector ports were set at 250°C. […] The carrier gas was helium, set to a constant flow rate of 0.7 ml/min. Peaks were identified by retention times of authentic FAME standards (Nu-Chek Prep). […] The concentrations were expressed on a per gram basis then multiplied by total weight of the tissue to determine the total amount of each fatty acid in the tissue.

`CCCCC/C=C\C/C=C\CCCCCCCC(=O)O` [LNA, linoleic acid]: the “Dietary PUFA excreted in the feces” value came out at 0.5 ± 0.05%.

The values above are taken from publication PMC3927474, “Whole body synthesis rates of DHA from α-linolenic acid are greater than brain DHA accretion and uptake rates in adult rats” (Journal of Lipid Research, 2014).
